From patent publication US11246898B2 (priority 2017, dated 2022)
pEC50: −log10 of the molar value. Where two headings read alike, the source gives them in different places.

Assays:
Ebola virus/Zaire [1] = assay: microbe, parasite or virus in culture; format: cell-based; details: Zaire ebolavirus
in vitro = details: African green monkey
Ebola virus/Zaire [2] = format: cell-based

Compound | pEC50 (Ebola virus/Zaire [1]) | CC50 (in vitro) [µM] | CC50 (CellTiter96 (MTS) cells) [µg/mL] | EC50 (Ebola virus/Zaire [2]) [µg/mL] | EC90 (Ebola virus/Zaire [2]) [µg/mL]
NC(=O)c1nc(F)c[nH]c1=O [Favipiravir] | 4.02 | > 1000 |  |  | 
Allophycocyanin |  |  | >400 | 1.77 | >400
